# According to patent US11331364B2, “Use for JNK inhibitor molecules for treatment of various diseases” (Xigen Inflammation Ltd., priority 2014, dated 2022):
# Square brackets hold non-standard residues; d marks the D form. Peptide text beside a SMILES is read from it.
# Assays:
# rat whole blood = experiment: PMA+ionomycin-induced IL-2 release in rat whole blood; assay type: cell-based; conditions: 10 μM; three activator concentrations, 4 h
# Protocol: FIG. 17 Dose dependent inhibition of IL-2 release in rat whole blood stimulated with PMA+ionomycin. JNK inhibitor with SEQ ID NO: 172 was added at three different concentrations, namely 1, 3 and 10 μM 1 h before stimulation with PMA+ionomycin. Three doses of activators were added (25/500 ng/mL, 50/750 ng/mL and 50/1000 ng/mL) for 4 h. IL-2 release was assessed in supernatant.
# Whole blood is collected from anesthetized rat or human healthy volunteers using a venipuncture connected to a pre-labeled vacuum tube containing sodium citrate. Tubes are gently mixed by inversion 7-8 times; and are then kept at RT until stimulation. JNK inhibitor of SEQ ID NO: 172 is prepared 6 times concentrated in PBS, and 30 μl/well of mix is added into 96-well plate. Whole blood is diluted by 1:2 in PBS and 120 μl of diluted blood is added in each well where either PBS alone or JNK inhibitor of SEQ ID NO: 172 has been previously added. Whole blood is incubated at 37° C.; 85 rpm (Stuart Orbital incubator SI500) for 60 min. Activators (LPS) are the prepared, 30 μl/well of LPS, 6 times concentrated. […] Cytokine (IL-6, IL-2, IFNγ and TNFα) were then measured using standard Elisa kits (e.g. from R&D Systems: DuoSet Elisas; or from BD Biosciences: BD Opteia Set Elisa). Results are expressed as pg/ml of supernatant of the measured cytokine. […]
# [1] = test system: primary mouse cortical neuron cultures; experiment: Neuronal apoptosis after Aβ42 stress in WT primary cortical neurons (cleaved PARP, caspase 3); assay type: cell-based
# Protocol: To this end, primary mouse cortical neuron cultures were exposed to either 2 μM or 25 μM of β-amyloid 1-42 (Aβ42) for 5 hours to induce Aβ42 cell stress. […] Levels of phosphorylated JNK (pJNK), total JNK (JNK), cleaved PARP and Tubulin (control) were determined. The ratio of pJNK/JNK served as a measure of JNK activity. The level of cleaved protein PARP, which is known to increase during apoptosis, served as a measure of neuronal apoptosis.
# To obtain primary cortical neuronal cultures, E15.5 mice embryos were dissected in PBS (Phosphate Buffered Saline) 6% glucose, on ice. Embryos cortices were minced into small pieces and treated with PBS glucose trypsin (Sigma Aldrich, Saint-Louis, USA) for 20 min at 37° C. Dissociated cortical cells were cultured in Neurobasal media complemented with B27, Glutamax and penicillin-streptomycin (Gibco). Neurons were cultured at 37° C., 5% CO2 on pre-coated with poly-L-lysin (Sigma Aldrich) petri dishes. Neurons were cultured to maturity (7 days) before use.
# To induce […] stress 2 μM of Aβ1-42 (Thermo Fisher Scientific, Mass., USA) were used during 5 h on cortical neurons. Aβ42-1 inversed peptide (Thermo Fisher Scientific) was used as negative control. AP 1-42 and Aβ42-1 were dissolved in pure water and incubated at 37° C. for 48 h before use. […]
# For immunoblot analysis cells were lysed on ice in a lysis buffer containing […] NaPi pH 7.8, […] NaCl, 1% Triton, 0.5% DOC, 0.1% SDS, 10% glycerol, 0.1 μM calyculin A, 1 mM Na3VO4 and 1× of a protease inhibitor cocktail (Sigma Aldrich). Lysates were sonicated and centrifugated 10 min at 15000 g at 4° C. The supernatant protein concentration was determined with the Micro BCA protein assay kit (Thermo Scientific). Thirty micrograms of proteins were resolved on SDS-PAGE and transferred onto nitrocellulose membrane. After blocking with TBS 5% skim milk, the membranes were probed with primary antibodies to JNK full, c-Jun, PKR, eIF2α (Santa Cruz, Danvers, USA), pJNK (Millipore, Billerica, USA), phosphor eIF2a (Thermo Fisher Scientific), PARP and tubulin (Cell Signaling, Danvers, USA). IR Dyes 800 and 700 (Rockland Immunochemical Inc, Gilbertsville, USA) antibodies were used as secondary antibodies. Blots were reveled with Odyssey imaging system (LI-COR Biosciences, Lincoln, USA).
# For caspase 3 activity analysis culture cell supernatants containing degenerating and dead neurons, and cell medium were collected in parallel of adhesive neurons lysis. Culture cell supernatants were centrifugated 10 min at 15000 g at 4° C. Pellets were then resuspended in lysis buffer and caspase 3 activity was measured by using the Caspase 3 Assay kit reagents and protocol (Abcam, Cambridge, UK).
# [2] = WT neurons, 10 μM, vs Aβ42 treated WT neurons
structure (smiles),measurement,setting,value
"CC(C)C[C@H](NC(=O)[C@H](CC(N)=O)NC(=O)[C@H](CC(C)C)NC(=O)[C@@H](NC(=O)[C@@H](C)NC(=O)[C@@H]1CCCN1C(=O)[C@H](CCCNC(=N)N)NC(=O)[C@@H](CCCCN)NC(=O)[C@@H]1CCCN1C(=O)[C@H](CCCNC(=N)N)NC(=O)[C@@H](CCCNC(=N)N)NC(=O)[C@H](CCCNC(=N)N)NC(=O)[C@H](CCCNC(=N)N)NC(=O)[C@H](CCC(N)=O)NC(=O)[C@@H](CCCNC(=N)N)NC(=O)[C@H](CCCNC(=N)N)NC(=O)[C@H](CCCCN)NC(=O)[C@H](CCCCN)NC(=O)[C@H](N)CCCNC(=N)N)[C@@H](C)O)C(=O)N[C@H](Cc1ccccc1)C(N)=O [SEQ ID NO: 172, rKKRrQRRrRPkRPaTLNLf] (H-[dR]KKR[dR]QRR[dR]RP[dK]RP[dA]TLNL[dF]-NH2; N-terminus assumed)",PMA-iono-induced IL-2 release,rat whole blood,did efficiently reduce
same,decrease of PARP cleavage,"[1]; 2 μM Aβ42, 5 μM pre-treatment",46.8%
same,decrease of PARP cleavage,"[1]; 2 μM Aβ42, 10 μM pre-treatment",80.2%
same,decrease of PARP cleavage,"[1]; 25 μM Aβ42, 5 μM pre-treatment",69%
same,decrease of PARP cleavage,"[1]; 25 μM Aβ42, 10 μM pre-treatment",80.6%
same,"efficiency to reduce apoptosis, 10 μM relative to 5 μM",[1]; Aβ42-induced apoptosis,1.7
same,decrease of caspase 3 activity,[1]; [2],78%
same,decrease of cleaved PARP expression level,[1]; [2],77%
same,reduction of cleaved caspase 3 expression level,[1]; [2],61%
